Assay results published in ChEMBL document CHEMBL1124522, “Synthesis and antitumor activity of 5-deaza-5,6,7,8-tetrahydrofolic acid and its N10-substituted analogues” (J Med Chem, 1989).

Experiments:
CCRF-CEM = test: Compound was tested for its antitumor activity against human lymphoblastic leukemic cells(CCRF-CEM) in vitro; format: functional, cell-based; details: ccrf-cem
[1] = Percent inhibition against 6C3HED lymphosarcoma at dose 25 mg/kg in C3H mice; format: functional; details: Mus musculus
[2] = Percent inhibition against C3H mammary adenocarcinoma at dose 25 mg/kg in C3H mice; format: functional; details: Mus musculus
[3] = Percent inhibition against 6C3HED lymphosarcoma at dose 12.5 mg/kg in C3H mice; format: functional; details: Mus musculus
[4] = Percent inhibition against C3H mammary adenocarcinoma at dose 12.5 mg/kg in C3H mice; format: functional; details: Mus musculus
[5] = In vivo anti tumor activity (toxic/total) at dose 100 mg/kg in C3H mice with transplantable murine solid tumor 6C3HED lymphosarcoma; Compound was tested on 10 mice.; format: functional, Mus musculus
[6] = In vivo anti tumor activity (toxic/total) at dose 12.5 mg/kg in C3H mice with transplantable murine solid tumor 6C3HED lymphosarcoma; Compound was tested on 10 mice.; format: functional, Mus musculus
[7] = Percent inhibition against C3H mammary adenocarcinoma at dose 50 mg/kg in C3H mice;Compound was toxic.; format: ADME, organism-based; set-up: dose 50 mg/kg; details: mouse, in vivo
[8] = In vivo anti tumor activity (toxic/total) at dose 25 mg/kg in C3H mice with transplantable murine solid tumor 6C3HED lymphosarcoma; Compound was tested on 10 mice.; format: functional, Mus musculus
[9] = In vivo antitumor activity (toxic/total) at dose 12.5 mg/kg in C3H mice with transplantable murine solid tumor C3H mammary adenocarcinoma; Compound was tested on 10 mice.; format: functional, Mus musculus
[10] = In vivo antitumor activity (toxic/total) at dose 25 mg/kg in C3H mice with transplantable murine solid tumor C3H mammary adenocarcinoma; Compound was tested on 10 mice.; format: functional, Mus musculus
[11] = Percent inhibition against 6C3HED lymphosarcoma at dose 50 mg/kg in C3H mice; format: functional; details: Mus musculus
[12] = Percent inhibition against 6C3HED lymphosarcoma at dose 100 mg/kg in C3H mice; format: functional; details: Mus musculus
[13] = In vivo anti tumor activity (toxic/total) at dose 50 mg/kg in C3H mice with transplantable murine solid tumor 6C3HED lymphosarcoma; Compound was tested on 10 mice.; format: functional, Mus musculus
[14] = In vivo antitumor activity (toxic/total) at dose 50 mg/kg in C3H mice with transplantable murine solid tumor C3H mammary adenocarcinoma; Compound was tested on 10 mice.; format: functional, Mus musculus
[15] = molecular target: T1, Folylpolyglutamate synthase, mitochondrial (Mus musculus) (UniProt P48760); test: Apparent catalytic rate constants (Km) owas determined from mouse liver Folyl-polyglutamate synthase
T1 sequence (whole entry): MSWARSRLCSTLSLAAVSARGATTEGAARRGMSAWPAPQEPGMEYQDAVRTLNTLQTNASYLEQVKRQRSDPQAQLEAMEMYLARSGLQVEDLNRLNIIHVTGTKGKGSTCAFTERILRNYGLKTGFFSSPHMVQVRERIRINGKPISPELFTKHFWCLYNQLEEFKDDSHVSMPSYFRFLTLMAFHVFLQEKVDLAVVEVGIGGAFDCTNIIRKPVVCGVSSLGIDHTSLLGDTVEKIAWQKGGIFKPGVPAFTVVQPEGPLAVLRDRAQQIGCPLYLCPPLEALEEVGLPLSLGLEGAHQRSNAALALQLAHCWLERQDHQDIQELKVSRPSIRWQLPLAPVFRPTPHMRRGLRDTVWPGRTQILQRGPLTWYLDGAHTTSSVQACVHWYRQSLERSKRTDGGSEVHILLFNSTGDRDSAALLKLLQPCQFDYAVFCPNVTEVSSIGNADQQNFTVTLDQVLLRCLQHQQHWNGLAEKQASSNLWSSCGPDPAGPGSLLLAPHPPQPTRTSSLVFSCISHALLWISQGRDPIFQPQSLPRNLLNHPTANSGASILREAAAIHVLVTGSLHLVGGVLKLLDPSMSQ

[16] = molecular target: T1, Folylpolyglutamate synthase, mitochondrial (Mus musculus); test: First order catalytic rate constants (k) was determined from mouse liver Folyl-polyglutamate synthase
[17] = substrate: Nc1nc(=O)c2nc(CNc3ccc(C(=O)N[C@@H](CCC(=O)O)C(=O)O)cc3)cnc2[nH]1; test: Catalytic rate folyl-poly-glutamate synthetase
[18] = substrate: Nc1nc(O)c2c(n1)NCC(CNc1ccc(C(=O)N[C@@H](CCC(=O)O)C(=O)O)cc1)C2; test: (§1) Catalytic rate constants (Vmax) was determined from mouse liver Folyl-polyglutamate synthase
[19] = substrate: Nc1nc(N)c2nc(CNc3ccc(C(=O)N[C@@H](CCC(=O)O)C(=O)O)cc3)cnc2n1; test: as §1
[20] = substrate: Nc1nc2c(c(=O)[nH]1)C[C@@H](CCc1ccc(C(=O)N[C@@H](CCC(=O)O)C(=O)O)cc1)CN2; test: as §1

Question: Which IC50 (CCRF-CEM) does the source give for Nc1nc(O)c2c(n1)NCC(CNc1ccc(C(=O)N[C@@H](CCC(=O)O)C(=O)O)cc1)C2 (stereo in doubt; 7a-A) here?
Answer: The IC50 was 6 nM.

Question: Which inhibition in vivo at 25 mg/kg [1] does the source give for Nc1nc(O)c2c(n1)NCC(CN(C=O)c1ccc(C(=O)N[C@@H](CCC(=O)O)C(=O)O)cc1)C2 (stereo in doubt; 7b) here?
Answer: The inhibition in vivo at 25 mg/kg was 100%.

Question: And the inhibition in vivo at 25 mg/kg [2]?
Answer: Its inhibition in vivo at 25 mg/kg is 98%.

Question: What about the inhibition in vivo at 12.5 mg/kg [3] of the same molecule?
Answer: The inhibition in vivo at 12.5 mg/kg was 95%.

Question: What about the inhibition in vivo at 12.5 mg/kg [4] of the same molecule?
Answer: Its inhibition in vivo at 12.5 mg/kg is 86%.

Question: What about the tox/total [5] of the same molecule?
Answer: Its tox/total is 7.

Question: What about the tox/total [6] of the same molecule?
Answer: The tox/total was 1.

Question: What about the Inhibition [7] of the same molecule?
Answer: The Inhibition was “Toxic”.

Question: And the tox/total [8]?
Answer: The tox/total was 1.

Question: And the tox/total [9]?
Answer: The tox/total was 0.

Question: And the tox/total [10]?
Answer: Its tox/total is 6.

Question: And the inhibition in vivo at 50 mg/kg [11]?
Answer: Its inhibition in vivo at 50 mg/kg is 100%.

Question: What about the IC50 (CCRF-CEM) of the same molecule?
Answer: The IC50 was 50 nM.

Question: And the inhibition in vivo at 100 mg/kg [12]?
Answer: Its inhibition in vivo at 100 mg/kg is 100%.

Question: What about the tox/total [13] of the same molecule?
Answer: The tox/total was 5.

Question: What about the tox/total [14] of the same molecule?
Answer: The tox/total was 10.

Question: For Nc1nc2c(c(=O)[nH]1)C[C@@H](CCc1ccc(C(=O)N[C@@H](CCC(=O)O)C(=O)O)cc1)CN2 (stereo in doubt; form 1) [LOMETREXOL], which IC50 (CCRF-CEM) is on record?
Answer: Its IC50 is 8 nM.

Question: Which IC50 (CCRF-CEM) does the source give for Nc1nc2c(c(=O)[nH]1)C[C@@H](CCc1ccc(C(=O)N[C@@H](CCC(=O)O)C(=O)O)cc1)CN2 (stereo in doubt; form 2) [LOMETREXOL] here?
Answer: The IC50 was 5 nM.

Question: With Nc1nc2c(c(=O)[nH]1)C[C@@H](CCc1ccc(C(=O)N[C@@H](CCC(=O)O)C(=O)O)cc1)CN2 (stereo in doubt; form 3) as the molecule, how does the Km app [15] read?
Answer: Its Km app is 7.3 µM.

Question: What about the k [16] of the same molecule?
Answer: Its k is 32.

Question: For Nc1nc2c(c(=O)[nH]1)C[C@@H](CCc1ccc(C(=O)N[C@@H](CCC(=O)O)C(=O)O)cc1)CN2 (stereo in doubt; form 3) [LOMETREXOL], which IC50 (CCRF-CEM) is on record?
Answer: Its IC50 is 20 nM.

B1: Folylpolyglutamate synthase, mitochondrial (Mus musculus), P48760 (protein)
chain: MSWARSRLCSTLSLAAVSARGATTEGAARRGMSAWPAPQEPGMEYQDAVRTLNTLQTNASYLEQVKRQRSDPQAQLEAMEMYLARSGLQVEDLNRLNIIHVTGTKGKGSTCAFTERILRNYGLKTGFFSSPHMVQVRERIRINGKPISPELFTKHFWCLYNQLEEFKDDSHVSMPSYFRFLTLMAFHVFLQEKVDLAVVEVGIGGAFDCTNIIRKPVVCGVSSLGIDHTSLLGDTVEKIAWQKGGIFKPGVPAFTVVQPEGPLAVLRDRAQQIGCPLYLCPPLEALEEVGLPLSLGLEGAHQRSNAALALQLAHCWLERQDHQDIQELKVSRPSIRWQLPLAPVFRPTPHMRRGLRDTVWPGRTQILQRGPLTWYLDGAHTTSSVQACVHWYRQSLERSKRTDGGSEVHILLFNSTGDRDSAALLKLLQPCQFDYAVFCPNVTEVSSIGNADQQNFTVTLDQVLLRCLQHQQHWNGLAEKQASSNLWSSCGPDPAGPGSLLLAPHPPQPTRTSSLVFSCISHALLWISQGRDPIFQPQSLPRNLLNHPTANSGASILREAAAIHVLVTGSLHLVGGVLKLLDPSMSQ
Question: Which Vmax [17] does the source give for B1 here?
Answer: Its Vmax is 1.

Question: And the Vmax [18]?
Answer: Its Vmax is 1.3.

Question: And the Vmax [19]?
Answer: The Vmax was 1.59.

Question: What about the Vmax [20] of the same molecule?
Answer: Its Vmax is 1.26.
